Data published in the Kinase Knowledgebase extract (Sharma et al. 2016).

These compounds were tested against MAPK14 (human) (UniProt Q16539) (assay: Inhibition of MAPK14 Kinase Activity).
Sequence of MAPK14 (human) (Q16539 whole entry, looked up): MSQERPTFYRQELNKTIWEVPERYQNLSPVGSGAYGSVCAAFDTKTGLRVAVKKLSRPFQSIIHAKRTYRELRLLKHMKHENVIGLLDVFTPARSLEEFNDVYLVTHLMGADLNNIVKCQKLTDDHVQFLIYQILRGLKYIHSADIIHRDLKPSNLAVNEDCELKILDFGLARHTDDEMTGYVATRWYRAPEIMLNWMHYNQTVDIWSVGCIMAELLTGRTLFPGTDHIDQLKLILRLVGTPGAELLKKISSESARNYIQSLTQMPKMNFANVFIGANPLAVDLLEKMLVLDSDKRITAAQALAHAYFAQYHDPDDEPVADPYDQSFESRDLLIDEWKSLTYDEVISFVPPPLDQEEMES

Structure (SMILES) | IC50
CC(C)NC(=O)c1csc(-c2c(-c3ccc(F)cc3)n[nH]c2C2CCN(C(=O)C3CC(O)CN3C(=O)OC(C)(C)C)CC2)n1 (centres undefined) | ≤ 1000 nM
CC(=O)NCC(=O)NCc1nc(-c2ccc(F)cc2)c(-c2nc(C(=O)NC(C)C)cs2)o1 | ≤ 1000 nM
CC(=O)NC(Cc1ccc(O)cc1)C(=O)NCc1nc(-c2ccc(F)cc2)c(-c2nc(C(=O)NC(C)C)cs2)o1 (centres undefined) | ≤ 1000 nM
CC(=O)N1CCC(c2onc(-c3ccc(F)cc3)c2-c2nc(C(=O)NC(C)C)cs2)CC1 | ≤ 1000 nM
CC(C)NC(=O)c1csc(-c2oc(CN(C)C)nc2-c2ccc(F)cc2)n1 | ≤ 1000 nM
Cc1nc(-c2ccc(F)cc2)c(-c2nc(C(=O)NCc3ccc(Cl)cc3)cs2)s1 | ≤ 1000 nM
CC(C)NC(=O)c1csc(-c2c(-c3ccc(F)cc3)n[nH]c2C2CCN(C(=O)c3cncc(Br)c3)CC2)n1 | ≤ 1000 nM
Cc1onc(-c2ccc(Cl)cc2)c1-c1ccn(C(=O)NCCO)n1 | ≤ 1000 nM
Cc1onc(-c2ccc(F)cc2)c1-c1ccn(C(=O)NC(C)C)n1 | ≤ 1000 nM
CC(C)NC(=O)c1csc(-c2oc(CNC(=O)CCc3nc4ccccc4[nH]3)nc2-c2ccc(F)cc2)n1 | ≤ 1000 nM
COc1cccc(OC)c1C(=O)NCc1nc(-c2ccc(F)cc2)c(-c2nc(C(=O)NC(C)C)cs2)o1 | ≤ 1000 nM
Cc1nc(-c2ccc(F)cc2)c(-c2nc(C(=O)NC3CCC(C)CC3)cs2)s1 (centres undefined) | ≤ 1000 nM
CC(C)NC(=O)c1csc(-c2oc(CNC(=O)c3ccccc3Cl)nc2-c2ccc(F)cc2)n1 | ≤ 1000 nM
COc1cccc(O)c1C(=O)N1CCN(Cc2nc(-c3ccc(F)cc3)c(-c3nc(C(=O)NC(C)C)cs3)o2)CC1 | ≤ 1000 nM
CC(C)NC(=O)c1csc(-c2c(-c3ccc(F)cc3)n[nH]c2C2CCN(C(=O)[C@H](C)O)CC2)n1 | ≤ 1000 nM
COc1cc(OC)c(C(=O)NCc2nc(-c3ccc(F)cc3)c(-c3nc(C(=O)NC(C)C)cs3)o2)c(OC)c1 | ≤ 1000 nM
CC(C)NC(=O)c1csc(-c2c(-c3ccc(F)cc3)noc2CN(C)CCc2ccccn2)n1 | ≤ 1000 nM
Cc1nc(-c2ccc(F)cc2)c(-c2nc(C(=O)NCc3ccc(N(C)C)cc3)cs2)s1 | ≤ 1000 nM
CC(C)NC(=O)c1csc(-c2oc(CN3CCN(C(=O)c4ccc(O)cc4O)CC3)nc2-c2ccc(F)cc2)n1 | ≤ 1000 nM
CC(C)NC(=O)c1csc(-c2c(-c3ccc(F)cc3)n[nH]c2C2CCN(C(=O)c3cccnc3)CC2)n1 | ≤ 1000 nM
Cc1cc(C(=O)N2CCN(Cc3nc(-c4ccc(F)cc4)c(-c4nc(C(=O)NC(C)C)cs4)o3)CC2)n[nH]1 | ≤ 1000 nM
CC(C)NC(=O)c1csc(-c2oc(CNC(=O)c3ccc(Oc4cccc(O)c4)cc3)nc2-c2ccc(F)cc2)n1 | ≤ 1000 nM

Structure (SMILES) | IC50
CC(C)NC(=O)c1coc(-c2c(-c3ccc(F)cc3)noc2C2CCNCC2)n1 | ≤ 1000 nM
CC(C)NC(=O)c1csc(-c2oc(CNCCc3ccc(O)cc3)nc2-c2ccc(F)cc2)n1 | ≤ 1000 nM
C#CCNC(=O)c1csc(-c2c(-c3ccc(F)cc3)n[nH]c2C)n1 | ≤ 1000 nM
COc1ccccc1CC(=O)N1CCN(Cc2nc(-c3ccc(F)cc3)c(-c3nc(C(=O)NC(C)C)cs3)o2)CC1 | ≤ 1000 nM
CC(C)NC(=O)c1csc(-c2oc(CNC(=O)c3cncc(Br)c3)nc2-c2ccc(F)cc2)n1 | ≤ 1000 nM
CC(=O)Nc1cccc(C(=O)N2CCC(c3[nH]nc(-c4ccc(F)cc4)c3-c3nc(C(=O)NC(C)C)cs3)CC2)c1 | ≤ 1000 nM
Cc1nc(-c2ccc(F)cc2)c(-c2nc(C(=O)NCCCCO)cs2)s1 | ≤ 1000 nM
CC(C)NC(=O)c1csc(-c2oc(CNC(=O)c3ccc4cc(O)ccc4c3)nc2-c2ccc(F)cc2)n1 | ≤ 1000 nM
O=C(NCc1cccnc1)c1csc(-c2c(-c3ccc(F)cc3)n[nH]c2C2CCN(C(=O)CO)CC2)n1 | ≤ 1000 nM
CC(C)NC(=O)c1csc(-c2oc(CN3CCN(C(=O)CCc4ccccc4O)CC3)nc2-c2ccc(F)cc2)n1 | ≤ 1000 nM
Cc1nc(-c2ccc(F)cc2)c(-c2nc(C(=O)N3CCCC4CCCCC43)cs2)s1 (centres undefined) | ≤ 1000 nM
Cc1nc(-c2ccc(F)cc2)c(-c2nc(C(=O)NC3CCCCCC3)cs2)s1 | ≤ 1000 nM
CC(C)NC(=O)c1csc(-c2oc(CNC(=O)c3ccc4cccc(O)c4n3)nc2-c2ccc(F)cc2)n1 | ≤ 1000 nM
Cc1nc(-c2ccc(F)cc2)c(-c2nc(C(=O)NCc3ccccc3F)cs2)s1 | ≤ 1000 nM
COc1ccc(CNC(=O)c2csc(-c3sc(C)nc3-c3ccc(F)cc3)n2)cc1O | ≤ 1000 nM
CCCCOc1ccc(C(=O)N2CCC(c3[nH]nc(-c4ccc(F)cc4)c3-c3nc(C(=O)NC(C)C)cs3)CC2)cc1 | ≤ 1000 nM
Cc1nc(-c2ccc(F)cc2)c(-c2nc(C(=O)NC(C)C)cs2)o1 | ≤ 1000 nM
Cc1cccc(N2CCN(C(=O)c3csc(-c4sc(C)nc4-c4ccc(F)cc4)n3)CC2C)c1 (centres undefined) | ≤ 1000 nM
Cc1nc(-c2ccc(F)cc2)c(-c2nc(C(=O)NC3CCN(Cc4ccccc4)C3)cs2)s1 (centres undefined) | ≤ 1000 nM
CCOc1ccccc1CNC(=O)c1csc(-c2sc(C)nc2-c2ccc(F)cc2)n1 | ≤ 1000 nM
CC(C)NC(=O)c1csc(-c2oc(CN3CCN(C(=O)c4cn(C)cn4)CC3)nc2-c2ccc(F)cc2)n1 | ≤ 1000 nM
Cc1nc(-c2ccc(F)cc2)c(-c2nc(C(=O)NC(C)C)cs2)[nH]1 | ≤ 1000 nM
